Results reported in ChEMBL document CHEMBL1147922, “Tetrahydroindazole inhibitors of bacterial type II topoisomerases. Part 2: SAR development and potency against multidrug-resistant strains” (Bioorg Med Chem Lett, 2007).
In brackets after ≈: the same amount, converted by molar mass.

Columns and labels:
Escherichia coli = assay: Antibacterial activity against Escherichia coli KL16; format: functional
Staphylococcus aureus [1] = assay: Antibacterial activity against Staphylococcus aureus ATCC 13709; format: functional
Streptococcus pneumoniae = assay: Antibacterial activity against Streptococcus pneumoniae ATCC 49619; format: functional
[2] = Inhibition of bacterial DNA gyrase
[3] = Inhibition of bacterial DNA topoisomerase 4
Staphylococcus aureus [4] = assay: Antibacterial activity against ciprofloxacin resistant methicillin resistant Staphylococcus aureus OC4222; format: functional
Staphylococcus aureus [5] = assay: Antibacterial activity against ciprofloxacin resistant methicillin resistant Staphylococcus aureus OC5273; format: functional
Staphylococcus aureus [6] = assay: Antibacterial activity against quinolone susceptible methicillin resistant Staphylococcus aureus OC2878; format: functional
Staphylococcus aureus [7] = assay: Antibacterial activity against ciprofloxacin resistant methicillin resistant Staphylococcus aureus OC3946; format: functional
Staphylococcus aureus [8] = assay: Antibacterial activity against ciprofloxacin resistant methicillin resistant Staphylococcus aureus OC4159; format: functional

Row | SMILES | MIC (Escherichia coli) [µg/mL] | MIC (Staphylococcus aureus [1]) [µg/mL] | MIC (Streptococcus pneumoniae) [µg/mL] | IC50 [2] [µg/mL] | IC50 [3] [µg/mL] | MIC (Staphylococcus aureus [4]) [µg/mL] | MIC (Staphylococcus aureus [5]) [µg/mL] | MIC (Staphylococcus aureus [6]) [µg/mL] | MIC (Staphylococcus aureus [7]) [µg/mL] | MIC (Staphylococcus aureus [8]) [µg/mL]
1 | CCOC(=O)c1cc2c(cc1C(=O)NC1CCc3nn(-c4ccnc5ccc(OC)cc45)cc3C1)NC(=O)CS2 (stereo not drawn) | > 16 | 2 (≈ 3.59 µM) | > 16 | – | – | – | – | – | – | –
2 | COc1ccc2nccc(-n3cc4c(n3)CCC(NC(=O)c3cc5c(cc3C(=O)O)SCC(=O)N5)C4)c2c1 (stereo not drawn) | > 16 | 1 (≈ 1.89 µM) | > 16 | – | – | – | – | – | – | –
3 | COc1ccc2nccc(-n3cc4c(n3)CCC(NC(=O)/C=C/c3ccccc3)C4)c2c1 (stereo not drawn) | – | 1 (≈ 2.36 µM) | 4 (≈ 9.42 µM) | 16 (≈ 37.7 µM) | 0.5 (≈ 1.18 µM) | – | – | – | – | –
4 | COc1ccc2nccc(-n3cc4c(n3)CCC(NC/C=C/c3ccccc3)C4)c2c1 (stereo not drawn) | – | 0.5 (≈ 1.22 µM) | 1 (≈ 2.44 µM) | 4 (≈ 9.74 µM) | – | 0.25 (≈ 0.609 µM) | 1 (≈ 2.44 µM) | 0.5 (≈ 1.22 µM) | 0.5 (≈ 1.22 µM) | 0.5 (≈ 1.22 µM)
5 | COc1ccc2nccc(-n3cc4c(n3)CCC(NC(=O)c3cc5c(cc3C)SCC(=O)N5)C4)c2c1 (stereo not drawn) | 8 (≈ 16 µM) | 0.5 (≈ 1 µM) | 16 (≈ 32 µM) | – | – | – | – | – | – | –
6 | CCOC(=O)c1cc2c(cc1C(=O)NC1CCc3nn(-c4ccnc5ccc(OC)nc45)cc3C1)NC(=O)CS2 (stereo not drawn) | > 16 | 0.5 (≈ 0.895 µM) | > 16 | – | – | – | – | – | – | –
7 | COc1ccc2nccc(-n3cc4c(n3)CCC(NCc3ccc5c(c3)OCO5)C4)c2n1 (stereo not drawn) | 32 (≈ 74.5 µM) | 0.5 (≈ 1.16 µM) | 2 (≈ 4.66 µM) | 0.25 (≈ 0.582 µM) | 0.25 (≈ 0.582 µM) | – | – | – | – | –
8 | COc1ccc2nccc(-n3cc4c(n3)CCC(NC(=O)c3cc5c(cc3C(=O)O)SCC(=O)N5)C4)c2n1 (stereo not drawn) | > 16 | 0.5 (≈ 0.942 µM) | 16 (≈ 30.2 µM) | – | – | – | – | – | – | –
9 | COc1ccc2nccc(-n3cc4c(n3)CCC(NC/C=C/c3ccccc3)C4)c2n1 (stereo not drawn) | – | 0.06 (≈ 0.146 µM) | < 0.125 | 0.12 (≈ 0.292 µM) | < 0.015 | 0.062 (≈ 0.151 µM) | 0.125 (≈ 0.304 µM) | 0.125 (≈ 0.304 µM) | 0.062 (≈ 0.151 µM) | 0.062 (≈ 0.151 µM)
10 | O=C(O)c1cn(C2CC2)c2cc(N3CCNCC3)c(F)cc2c1=O [CIPROFLOXACIN] | – | 0.25 (≈ 0.754 µM) | – | – | – | – | – | – | – | –
11 | CCn1cc(C(=O)O)c(=O)c2cc(F)c(N3CCNCC3)cc21 [NORFLOXACIN] | – | 1 (≈ 3.13 µM) | – | – | – | > 128 | > 128 | 1 (≈ 3.13 µM) | 128 (≈ 401 µM) | > 128
12 | C[C@@H]1CN(c2c(F)c(N)c3c(=O)c(C(=O)O)cn(C4CC4)c3c2F)C[C@H](C)N1 [SPARFLOXACIN] | – | 0.062 (≈ 0.158 µM) | – | – | – | 8 (≈ 20.4 µM) | 16 (≈ 40.8 µM) | 0.062 (≈ 0.158 µM) | 4 (≈ 10.2 µM) | 16 (≈ 40.8 µM)

The next lines start with results.

Row | MIC (Escherichia coli) [µg/mL] | MIC (Staphylococcus aureus [1]) [µg/mL] | MIC (Streptococcus pneumoniae) [µg/mL] | IC50 [2] [µg/mL] | IC50 [3] [µg/mL] | SMILES | MIC (Staphylococcus aureus [4]) [µg/mL] | MIC (Staphylococcus aureus [5]) [µg/mL] | MIC (Staphylococcus aureus [6]) [µg/mL] | MIC (Staphylococcus aureus [7]) [µg/mL] | MIC (Staphylococcus aureus [8]) [µg/mL]
13 | > 16 | 0.25 (≈ 0.499 µM) | > 16 | – | – | COc1ccc2nccc(-n3cc4c(n3)CCC(NC(=O)c3cc5c(cc3C)SCC(=O)N5)C4)c2n1 (stereo not drawn) | – | – | – | – | –
14 | – | 0.25 (≈ 0.588 µM) | 2 (≈ 4.7 µM) | 8 (≈ 18.8 µM) | – | COc1ccc2nccc(-n3cc4c(n3)CCC(NC(=O)/C=C/c3ccccc3)C4)c2n1 (stereo not drawn) | – | – | – | – | –
15 | – | 0.25 (≈ 0.605 µM) | < 0.125 | 0.8 (≈ 1.93 µM) | – | COc1ccc2nccc(-n3cc4c(n3)CCC(NCCCc3ccccc3)C4)c2n1 (stereo not drawn) | – | – | – | – | –
16 | – | 0.25 (≈ 0.546 µM) | 4 (≈ 8.74 µM) | > 16 | – | COc1ccc2nccc(-n3cc4c(n3)CCC(NC(=O)c3ccc(C)c([N+](=O)[O-])c3)C4)c2c1 (stereo not drawn) | – | – | – | – | –
17 | – | 0.25 (≈ 0.515 µM) | 8 (≈ 16.5 µM) | – | – | COc1ccc2nccc(-n3cc4c(n3)CCC(NC(=O)c3cc(F)c(Cl)cc3Cl)C4)c2c1 (stereo not drawn) | – | – | – | – | –
18 | 2 (≈ 4.37 µM) | 0.25 (≈ 0.546 µM) | 2 (≈ 4.37 µM) | < 0.125 | 0.016 (≈ 0.035 µM) | COc1ccc2nccc(-n3cc4c(n3)CCC(NCc3ccc5c(n3)NC(=O)CO5)C4)c2n1 (stereo not drawn) | – | – | – | – | –
19 | – | 0.25 (≈ 0.545 µM) | 8 (≈ 17.4 µM) | – | – | COc1ccc2nccc(-n3cc4c(n3)CCC(NC(=O)c3ccc(C)c([N+](=O)[O-])c3)C4)c2n1 (stereo not drawn) | – | – | – | – | –
20 | > 128 | 0.125 (≈ 0.239 µM) | 4 (≈ 7.65 µM) | 1 (≈ 1.91 µM) | – | COc1ccc2nccc(-n3cc4c(n3)CCC(NC(=O)c3c(F)cc5c(c3F)NC(=O)CS5)C4)c2n1 (stereo not drawn) | – | – | – | – | –
21 | 2 (≈ 3.54 µM) | 0.125 (≈ 0.221 µM) | 2 (≈ 3.54 µM) | 0.5 (≈ 0.886 µM) | 0.125 (≈ 0.221 µM) | COc1ccc2nccc(-n3cc4c(n3)CCC(NC(=O)c3cc5c(cc3Br)SCC(=O)N5)C4)c2c1 (stereo not drawn) | – | – | – | – | –
22 | 4 (≈ 7.21 µM) | 0.125 (≈ 0.225 µM) | 8 (≈ 14.4 µM) | 0.25 (≈ 0.451 µM) | – | COc1ccc2nccc(-n3cc4c(n3)CCC(NC(=O)c3cc5c(cc3C(F)(F)F)SCC(=O)N5)C4)c2n1 (stereo not drawn) | – | – | – | – | –
23 | 2 (≈ 4.26 µM) | 0.125 (≈ 0.266 µM) | 4 (≈ 8.52 µM) | 0.25 (≈ 0.532 µM) | 0.5 (≈ 1.06 µM) | COc1ccc2nccc(-n3cc4c(n3)CCC(NC(=O)c3ccc5c(c3)NC(=O)CO5)C4)c2c1 (stereo not drawn) | – | – | – | – | –
